From the supplement of paper PMC5579334

Legend:
YST-1 [1] = assay: % inhibition of CellTiter-Glo viability at highest tested concentration (72 h), relative to DMSO and benzethonium chloride controls; higher = more inhibition
Method in brief: (§1)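 MPNST cell lines and primary human Schwann cells were seeded at 750–1000 cells per well into 384-well plates preprinted with each compound at five concentrations in 10-fold steps, then incubated 72 h at 37 °C, 5% CO2. CellTiter-Glo ATP luminescence gave viability, scaled between vehicle and positive-control wells, with duplicates averaged where present. Curves were fitted with a four-parameter logistic model. Percent inhibition refers to the top concentration, while drug sensitivity score and relative IC50, censored at the top concentration, come from these fits.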

HS-PSS [2] = assay: as above
Method in brief: as §1

HS-Sch-2 [3] = assay: as above
Method in brief: as §1

YST-1 [4] = assay: drug sensitivity score (DSS, CellTiter-Glo viability, 72 h) (DSS (dimensionless)); higher = more sensitive; extreme values may be limits of the assay
Method in brief: as §1

HS-PSS [5] = assay: as above
Method in brief: as §1

HS-Sch-2 [6] = assay: as above
Method in brief: as §1

HS-PSS [7] = assay: drug sensitivity score (DSS, CellTox-Green cytotoxicity, 72 h) (DSS (dimensionless)); higher = more cytotoxic; extreme values may be limits of the assay
Method in brief: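 For 72 h at 37 °C, MPNST cell lines and primary human Schwann cells were exposed in 384-well plates to five 10-fold compound dilutions. CellTox-Green, added before seeding at a final 1:1000 dilution, gave fluorescence from DNA released by disrupted cells. Signals were scaled to vehicle and positive-control wells, cultures failing plate quality control were left out, and four-parameter logistic fits were applied. Relative IC50 and drug sensitivity score were derived from the fits, with IC50 censored at the top concentration.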

SMILES | % inhibition (YST-1 [1]) [%] | % inhibition (HS-PSS [2]) [%] | % inhibition (HS-Sch-2 [3]) [%] | drug sensitivity score (YST-1 [4]) | drug sensitivity score (HS-PSS [5]) | drug sensitivity score (HS-Sch-2 [6]) | drug sensitivity score (HS-PSS [7])
CC(C)NC[C@@H](C(=O)N1CCN(c2ncnc3c2[C@H](C)C[C@H]3O)CC1)c1ccc(Cl)cc1 [Ipatasertib] (max concentration tested 10000 nM) | 55.2 | 37.1 | 39.1 | 6.9 | 3.83 | 4.24 | 0.28
CCC(C)n1ncn(-c2ccc(N3CCN(c4ccc(OCC5COC(Cn6cncn6)(c6ccc(Cl)cc6Cl)O5)cc4)CC3)cc2)c1=O (stereo not given) [Itraconazole] (max concentration tested 5000 nM) | 33.2 | 50.9 | 11.3 | 1.58 | 4.25 | 0.33 | 0
Cc1sc2c(c1C)C(c1ccc(Cl)cc1)=N[C@@H](CC(=O)OC(C)(C)C)c1nnc(C)n1-2 [JQ1] (max concentration tested 10000 nM) | 72.6 | 59.1 | 76.3 | 13.1 | 10 | 13.1 | 0
CCCNC(=O)Nc1ccc(Oc2ncnc3cc(OC)c(OC)cc23)cc1Cl [KRN-633] (max concentration tested 2500 nM) | 7.23 | 10.5 | -7.09 | 0 | 0 | 0 | 0
O=C(c1ccc(/C=C/c2n[nH]c3ccccc23)cc1)N1CCNCC1 [KW-2449] (max concentration tested 2500 nM) | 30.9 | 10.1 | 0.48 | 2.08 | 0 | 0 | 0
CN[C@@H](C)C(=O)N[C@H](C(=O)N1CCC[C@H]1c1nc(C(=O)c2ccc(F)cc2)cs1)C1CCCCC1 [LCL161] (max concentration tested 25000 nM) | 38.7 | 27.8 | 44.2 | 3.14 | 2.18 | 2.38 | 0.11
Nc1cccc2c1CN(C1CCC(=O)NC1=O)C2=O (stereo not given) [Lenalidomide] (max concentration tested 100000 nM) | 20.7 | 6.75 | 15.6 | 1.7 | 0 | 0.18 | 0
COc1cc2nccc(Oc3ccc(NC(=O)NC4CC4)c(Cl)c3)c2cc1C(N)=O [Lenvatinib] (max concentration tested 2500 nM) | 18.1 | 5.51 | 15 | 0.83 | 0 | 0.06 | 0
NC(=O)N1CCC(CC(=O)N2CCC([C@H]3c4ncc(Br)cc4CCc4cc(Cl)cc(Br)c43)CC2)CC1 [Lonafarnib] (max concentration tested 10000 nM) | 64.4 | 58 | 55.5 | 5.95 | 4.36 | 4.95 | 0
Cc1c(F)cc(C(=O)NC2CC2)cc1-c1ccc(C(=O)NCC(C)(C)C)cn1 [Losmapimod] (max concentration tested 10000 nM) | 32.3 | 8.01 | 1.17 | 10.1 | 0 | 0 | 0
CC[C@H](C)C(=O)O[C@H]1C[C@@H](C)C=C2C=C[C@H](C)[C@H](CC[C@@H]3C[C@@H](O)CC(=O)O3)[C@H]21 [Lovastatin] (max concentration tested 10000 nM) | 0.71 | -5.9 | -6.45 | 0 | 0 | 0 | 0
CNC(=O)c1cccc2cc(Oc3ccnc4cc(OCC5(N)CC5)c(OC)cc34)ccc12 [Lucitanib] (max concentration tested 10000 nM) | 26.4 | 23.4 | 31.9 | 2.13 | 1.71 | 1.19 | 0
CCNC(=O)c1noc(-c2cc(C(C)C)c(O)cc2O)c1-c1ccc(CN2CCOCC2)cc1 [Luminespib] (max concentration tested 1000 nM) | 79.6 | 82.2 | 98.9 | 19.5 | 14 | 23.5 | 3.7
CN(C[C@@H]1COCCO1)S(=O)(=O)Nc1ccc2ccc3ncc(-c4cnn(C)c4)cc3c(=O)c2c1 [MK-2461] (max concentration tested 10000 nM) | 67.3 | 25.5 | 55.1 | 6.02 | 0.69 | 2.68 | 0
O=C(c1cccc(Cl)c1F)N1CCN(Cc2cccc(Nc3nccs3)n2)CC1 [MK-8745] (max concentration tested 2500 nM) | 36.5 | 17.5 | 48.5 | 4.21 | 0.32 | 3.17 | 0.89
Cn1cc(-c2cnn3c(N)c(Br)c([C@@H]4CCCNC4)nc23)cn1 [MK-8776] (max concentration tested 2500 nM) | 29.6 | 7.73 | 72 | 2.03 | 0 | 7.06 | 0
Cc1cnc(-c2ccccc2C(C)C)nc1NCc1ccc(-n2ccnn2)cc1 [ML323] (max concentration tested 10000 nM) | 18.2 | 42 | 39.9 | 0.66 | 3.56 | 3.67 | 0
O=C(O)c1ccc(Nc2ncc3c(n2)-c2ccc(Cl)cc2C(c2c(F)cccc2F)=NC3)cc1 [MLN-8054] (max concentration tested 10000 nM) | 46.6 | 36.4 | 60.3 | 6.64 | 3.57 | 6.25 | 0

SMILES | % inhibition (YST-1 [1]) [%] | % inhibition (HS-PSS [2]) [%] | % inhibition (HS-Sch-2 [3]) [%] | drug sensitivity score (YST-1 [4]) | drug sensitivity score (HS-PSS [5]) | drug sensitivity score (HS-Sch-2 [6]) | drug sensitivity score (HS-PSS [7])
O=C(Nc1cccc(NC(=O)c2cccc(O)c2O)c1)c1cccc(O)c1O [MST-312] (max concentration tested 10000 nM) | 96.2 | 86.4 | 90.7 | 5.45 | 4.53 | 10.8 | 0.02
CNC(=O)[C@@H](NC(=O)[C@H](CC(C)C)[C@H](O)C(=O)NO)C(C)(C)C [Marimastat] (max concentration tested 10000 nM) | 7.56 | -7.14 | 17.1 | 0 | 0 | 0.33 | 0
CC(=O)O[C@]1(C(C)=O)CC[C@H]2[C@@H]3C=C(C)C4=CC(=O)CC[C@]4(C)[C@H]3CC[C@@]21C [Megestrol acetate] (max concentration tested 10000 nM) | 6.88 | -2.66 | 2.53 | 0 | 0 | 0 | 0
N[C@@H](Cc1ccc(N(CCCl)CCCl)cc1)C(=O)O [Melphalan] (max concentration tested 12500 nM) | 3.44 | 3.32 | 7.23 | 0 | 0 | 0 | 0
CCN(CC)CCCC(C)Nc1c2ccc(Cl)cc2nc2ccc(OC)cc12 (stereo not given) [Mepacrine] (max concentration tested 50000 nM) | 101 | 101 | 101 | 17.3 | 18.5 | 18.5 | 18
Cc1ccc(C(=O)Nc2ccc(Oc3cc4cnn(C)c4cc3-c3cn[nH]c3)c(F)c2)c(=O)n1-c1ccc(F)cc1 [Merestinib] (max concentration tested 1000 nM) | 25.2 | 46.7 | 31 | 1.74 | 3.07 | 1.13 | 0
CN(C)C(=N)NC(=N)N [Metformin] (max concentration tested 100000 nM) | -0.71 | 19.4 | 7.35 | 0 | 0.59 | 0 | 0
CNC(=O)c1nn(C)c2c1C(C)(C)Cc1cnc(Nc3ccc(N4CCN(C)CC4)cc3)nc1-2 [Milciclib] (max concentration tested 10000 nM) | 101 | 79.3 | 96 | 16.6 | 9.77 | 9.72 | 0.17
FC(F)(F)c1ccc(/C=C/c2nc(COc3ccc(CCCCn4ccnn4)cc3)co2)cc1 [Mubritinib] (max concentration tested 1000 nM) | 28.4 | 74.8 | 62.9 | 6.65 | 17.4 | 12.9 | 0
OC(CC1c2ccccc2-c2cncn21)C1CCCCC1 (stereo not given) [NLG919] (max concentration tested 10000 nM) | 10.1 | 7.55 | 0.68 | 0 | 0 | 0 | 0
Cc1cc(OCc2nnc(SC3CCCC3)n2-c2cccnc2)ccc1-c1ccc(S(C)(=O)=O)cc1 [NMS-873] (max concentration tested 10000 nM) | 99.9 | 99.9 | 101 | 9.52 | 22.9 | 19.2 | 5.58
CCN1CCN(Cc2ccc(-c3cc4c(N[C@H](C)c5ccccc5)ncnc4[nH]3)cc2)CC1 [NVP-AEE788] (max concentration tested 2500 nM) | 22.3 | 22.7 | 2.96 | 1.87 | 1.04 | 0 | 0
Nc1ncnc2c1c(-c1cccc(OCc3ccccc3)c1)cn2[C@H]1C[C@@H](CN2CCC2)C1 [NVP-AEW541] (max concentration tested 10000 nM) | 98.3 | 100 | 99.8 | 13 | 5.83 | 8.08 | 7.08
COc1ccc(-c2ccc3ncc4c(c3c2)n(-c2ccc(N3CCNCC3)c(C(F)(F)F)c2)c(=O)n4C)cn1 [NVP-BGT226] (max concentration tested 1000 nM) | 99.5 | 99.1 | 98.2 | 19.7 | 15.3 | 21.4 | 3.94
CNC(=O)c1ccc(-c2cnc3ncc(Cc4ccc5ncccc5c4)n3n2)cc1F [NVP-INC280] (max concentration tested 1000 nM) | 12.3 | 7.48 | 6.7 | 0.19 | 0 | 1.29 | 0
Cc1cc(-c2ncc(CC(=O)Nc3ccc(-c4cnccn4)cn3)cc2C)ccn1 [NVP-LGK974] (max concentration tested 10000 nM) | 1.59 | 45.4 | 52.2 | 0 | 3.51 | 3 | 0
NC(=O)c1cccc2cn(-c3ccc(C4CCCNC4)cc3)nc12 (stereo not given) [Niraparib] (max concentration tested 10000 nM) | 54.5 | 50.4 | 26.4 | 7.91 | 4.28 | 2.37 | 0.21
